Test system: CHO cell line (GAA LEC clone R3.3) expressing rh-GAA
Assay: Phosphorylation efficiency of rh-GAA from cultures containing mannosidase inhibitors ([32P] incorporation by GlcNAc phosphotransferase)
Type: cell-based, Chinese Hamster
Conditions: for [^32P] Phosphate Incorporation (cpm): conditioned media with 6 μg GAA; for effect on the phosphorylation reaction of rh-GAA: increasing amounts of inhibitor alone, versus GAA cultured without mannosidase inhibitors (FIG. 1)
Protocol: To determine whether mannosidase inhibitors can increase phosphorylation efficiency of recombinant human acid alpha glucosidase (rh-GAA), a CHO cell line (GAA LEC clone R3.3) expressing rh-GAA was grown in various conditions that contained different amounts of the following mannosidase the inhibitors: Kifunensin; Deoxymannojirimycin (DMJ); or combinations of both inhibitors. Conditioned media from each inhibitor condition containing 6 μg of GAA (based on GAA activity assay) was then incubated with purified bovine GlcNAc phosphotransferase (Pt'ase) and [^32P]UDP-GlcNAc. Subsequently, each phosphorylation reaction was loaded onto a concanavalin A-sepharose column to capture glycoproteins, e.g., rh-GAA. The concanavalin A-sepharose was washed and the resin was counted in a liquid scintillation counter to measure the ^32P incorporation, i.e., the extent of phosphorylation on rh-GAA. The results are summarized in Table 1 below and FIGS. 1 and 2.

SMILES | [^32P] Phosphate Incorporation (cpm) (0.5 mM inhibitor in culture) | [^32P] Phosphate Incorporation (cpm) (1.0 mM inhibitor in culture) | [^32P] Phosphate Incorporation (cpm) (1.75 mM inhibitor in culture) | [^32P] Phosphate Incorporation (cpm) (2.5 mM inhibitor in culture) | [^32P] Phosphate Incorporation (cpm) (5.0 mM inhibitor in culture) | effect on the phosphorylation reaction of rh-GAA | [^32P] Phosphate Incorporation (cpm) (0.5 μg/ml inhibitor in culture) | [^32P] Phosphate Incorporation (cpm) (1.0 μg/ml inhibitor in culture) | [^32P] Phosphate Incorporation (cpm) (2.5 μg/ml inhibitor in culture) | [^32P] Phosphate Incorporation (cpm) (5.0 μg/ml inhibitor in culture) | [^32P] Phosphate Incorporation (cpm) (10.0 μg/ml inhibitor in culture)
OC[C@H]1NC[C@@H](O)[C@@H](O)[C@@H]1O [DMJ only, deoxymannojirimycin] | 3656 cpm | 4500 cpm | 4450 cpm | 7258 cpm | 6413 cpm | greatly enhance | – | – | – | – | –
O=C1N[C@@H]2[C@@H](O)[C@@H](O)[C@H](O)[C@@H](CO)N2C1=O [Kifunensin only, kifunensine] | – | – | – | – | – | greatly enhance | 6675 cpm | 8585 cpm | 7147 cpm | 6717 cpm | 7116 cpm
